Among the data in patent US11447466B2, “Substituted indole compounds useful as inhibitors of TLR7/8/9” (BRISTOL-MYERS SQUIBB COMPANY, priority 2017, dated 2022) are IC50 values, retold here.

One assay concerns the target T1, human TLR8 (Homo sapiens, UniProt Q9NR97).
T1 construct: host or cells: HEK-Blue cells
T1 sequence (Q9NR97 27-1041): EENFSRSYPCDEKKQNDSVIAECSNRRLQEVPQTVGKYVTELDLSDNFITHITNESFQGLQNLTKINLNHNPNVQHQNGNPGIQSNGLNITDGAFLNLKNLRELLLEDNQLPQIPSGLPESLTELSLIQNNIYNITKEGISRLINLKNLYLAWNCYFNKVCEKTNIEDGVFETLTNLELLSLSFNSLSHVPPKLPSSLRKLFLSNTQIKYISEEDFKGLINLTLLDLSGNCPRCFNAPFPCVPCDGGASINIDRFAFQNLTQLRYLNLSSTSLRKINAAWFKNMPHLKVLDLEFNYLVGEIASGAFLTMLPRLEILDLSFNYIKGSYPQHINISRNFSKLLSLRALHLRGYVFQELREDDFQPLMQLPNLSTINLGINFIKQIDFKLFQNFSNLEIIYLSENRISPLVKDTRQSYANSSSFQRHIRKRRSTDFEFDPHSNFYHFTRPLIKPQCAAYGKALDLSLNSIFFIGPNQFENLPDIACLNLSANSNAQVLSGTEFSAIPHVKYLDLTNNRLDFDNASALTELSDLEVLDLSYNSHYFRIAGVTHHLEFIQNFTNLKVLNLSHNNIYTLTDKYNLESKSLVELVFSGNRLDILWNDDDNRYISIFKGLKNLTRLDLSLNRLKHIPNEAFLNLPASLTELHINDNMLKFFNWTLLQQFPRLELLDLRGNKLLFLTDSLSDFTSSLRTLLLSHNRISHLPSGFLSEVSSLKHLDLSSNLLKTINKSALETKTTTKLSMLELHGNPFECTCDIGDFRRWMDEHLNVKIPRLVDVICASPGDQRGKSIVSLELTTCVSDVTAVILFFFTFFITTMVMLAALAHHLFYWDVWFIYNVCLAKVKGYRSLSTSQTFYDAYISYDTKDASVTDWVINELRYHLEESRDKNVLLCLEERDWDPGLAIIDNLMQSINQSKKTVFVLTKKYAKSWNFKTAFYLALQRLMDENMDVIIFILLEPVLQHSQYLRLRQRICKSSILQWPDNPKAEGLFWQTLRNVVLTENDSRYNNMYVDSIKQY
The experiment in a line: TLR8 inhibition reporter assay (HEK-Blue SEAP reporter, R848 stimulation). The assay is classed as cell-based. The conditions noted are these: HEK-Blue cells overexpressing human TLR8, SEAP reporter, R848 15.9 μM, 22 hour incubation. As for the experimental part: (§1) TLR7/8/9 Inhibition Reporter Assays
(§2) HEK-Blue™-cells (Invivogen) overexpressing human TLR7, TLR8 or TLR9 receptors were used for screening inhibitors of these receptors using an inducible SEAP (secreted embryonic alkaline phosphatase) reporter gene under the control of the IFN-β minimal promoter fused to five NF-κB and AP-1-binding sites. Briefly, cells are seeded into Greiner 384 well plates (15000 cells per well for TLR7, 20,000 for TLR8 and 25,000 for TLR9) and then treated with test compounds in DMSO to yield a final dose response concentration range of 0.05 nM-50 μM. After a 30 minute compound pre-treatment at room temperature, the cells are then stimulated with a TLR7 ligand (gardiquimod at a final concentration of 7.5 μM), TLR8 ligand (R848 at a final concentration of 15.9 μM) or TLR9 ligand (ODN2006 at a final concentration of 5 nM) to activate NF-κB and AP-1 which induce the production of SEAP. After a 22 hour incubation at 37° C., 5% CO2, SEAP levels are determined with the addition of HEK-Blue™ Detection reagent (Invivogen), a cell culture medium that allows for detection of SEAP, according to manufacturer's specifications. The percent inhibition is determined as the % reduction in the HEK-Blue signal present in wells treated with agonist plus DMSO alone compared to wells treated with a known inhibitor.

A further assay deals with T2, human TLR7 (Homo sapiens, UniProt Q9NYK1).
T2 construct: host or cells: HEK-Blue cells
T2 sequence (Q9NYK1 27-1049): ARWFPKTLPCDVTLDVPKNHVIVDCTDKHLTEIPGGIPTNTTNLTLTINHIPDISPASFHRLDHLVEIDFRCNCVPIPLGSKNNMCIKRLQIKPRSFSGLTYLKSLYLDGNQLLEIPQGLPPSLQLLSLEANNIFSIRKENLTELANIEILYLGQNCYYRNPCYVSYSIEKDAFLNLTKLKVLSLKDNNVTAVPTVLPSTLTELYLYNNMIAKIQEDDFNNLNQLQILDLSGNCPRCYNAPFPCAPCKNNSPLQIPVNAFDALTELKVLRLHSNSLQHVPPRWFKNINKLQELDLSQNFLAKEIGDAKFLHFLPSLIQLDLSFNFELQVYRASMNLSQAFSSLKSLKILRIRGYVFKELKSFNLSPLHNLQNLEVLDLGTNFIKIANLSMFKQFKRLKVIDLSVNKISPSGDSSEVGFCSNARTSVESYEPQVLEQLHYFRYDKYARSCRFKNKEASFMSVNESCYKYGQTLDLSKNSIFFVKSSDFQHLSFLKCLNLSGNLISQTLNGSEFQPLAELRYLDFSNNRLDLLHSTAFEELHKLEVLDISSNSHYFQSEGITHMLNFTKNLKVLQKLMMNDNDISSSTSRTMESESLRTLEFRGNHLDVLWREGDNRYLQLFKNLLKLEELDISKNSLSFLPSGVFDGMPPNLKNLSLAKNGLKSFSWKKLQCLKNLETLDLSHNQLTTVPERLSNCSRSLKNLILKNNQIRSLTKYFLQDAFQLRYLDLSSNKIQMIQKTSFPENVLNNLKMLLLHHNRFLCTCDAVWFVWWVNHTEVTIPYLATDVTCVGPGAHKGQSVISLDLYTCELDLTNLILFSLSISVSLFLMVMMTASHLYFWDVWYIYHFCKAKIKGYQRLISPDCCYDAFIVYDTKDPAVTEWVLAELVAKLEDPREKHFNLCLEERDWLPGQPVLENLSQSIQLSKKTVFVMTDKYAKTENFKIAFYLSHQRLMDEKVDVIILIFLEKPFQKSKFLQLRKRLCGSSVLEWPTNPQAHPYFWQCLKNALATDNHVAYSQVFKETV
The experiment in a line: TLR7 inhibition reporter assay (HEK-Blue SEAP reporter, gardiquimod stimulation). Format: cell-based. The conditions noted are these: HEK-Blue cells overexpressing human TLR7, SEAP reporter, gardiquimod 7.5 μM, 22 hour incubation. As for the experimental part: as §1, §2
(In a reporter assay the amount or activity of a reporter protein is the signal.)

As usually defined, the IC50 is the concentration that gives 50% inhibition. As to `Cc1cc(-c2[nH]c3ccc(C4CCN(C(=O)[C@H]5C[C@H](O)CN5)CC4)cc3c2C(C)C)cn(C)c1=O` [Example 292, 5-(5-(1-((2R,4S)-4-hydroxypyrrolidine-2-carbonyl)piperidin-4-yl)-3-isopropyl-1H-indol-2-yl)-1,3-dimethylpyridin-2(1H)-one], the IC50 against human TLR8 is 40.7 nM; against human TLR7 it was 7.2 nM.

For the compound `Cc1cc(-c2[nH]c3ccc(C4CCN(CCC(C(F)(F)F)C(F)(F)F)CC4)cc3c2C(C)C)cn(C)c1=O` [Example 88, 5-(3-isopropyl-5-(1-(4,4,4-trifluoro-3-(trifluoromethyl)butyl)piperidin-4-yl)-1H-indol-2-yl)-1,3-dimethylpyridin-2(1H)-one], the IC50 on human TLR8 turned out to be 53.2 nM; against human TLR7 it was 67.5 nM. `Cc1cc(-c2[nH]c3ccc(C4CCN(C(=O)[C@@H]5C[C@@H](O)CN5)CC4)cc3c2C(C)C)cn(C)c1=O` [Example 293, 5-(5-(1-((2S,4R)-4-hydroxypyrrolidine-2-carbonyl)piperidin-4-yl)-3-isopropyl-1H-indol-2-yl)-1,3-dimethylpyridin-2(1H)-one] returned an IC50 against human TLR7 of 21.6 nM. Turning to `CCn1nc(-c2[nH]c3ccc(C4CCNCC4)cc3c2C(C)C)c(C)c(C)c1=O` [Example 27, 2-ethyl-6-(3-isopropyl-5-(piperidin-4-yl)-1H-indol-2-yl)-4,5-dimethylpyridazin-3(2H)-one], the figures for the IC50 against human TLR8 and at human TLR7 were 18.5 nM and 165 nM, respectively. The like results for `Cc1cc(-c2[nH]c3ccc(C4CCN(C(=O)[C@H]5C[C@H](O)CN5)CC4)cc3c2C(C)C)cn(C)c1=O` [Example 288, 5-(5-(1-((2R,4S)-4-hydroxypyrrolidine-2-carbonyl)piperidin-4-yl)-3-isopropyl-1H-indol-2-yl)-1,3-dimethylpyridin-2(1H)-one] were, in that order, 61.7 nM and 17.4 nM. As to `Cc1cc(-c2[nH]c3ccc(C4CCN(CC(C)(C)O)CC4)cc3c2C(C)C)cn(Cc2ccccc2)c1=O` [Example 329, 1-benzyl-5-(5-(1-(2-hydroxy-2-methylpropyl)piperidin-4-yl)-3-isopropyl-1H-indol-2-yl)-3-methylpyridin-2(1H)-one], the IC50 was found to be 32.4 nM at human TLR8 and 15.8 nM at human TLR7. On the same counts, the results for `Cc1cc(-c2[nH]c3ccc(C4CCN(C5CCC(C(C)C)CC5)CC4)cc3c2C(C)C)cn(C)c1=O` (stereo not shown) [Example 234, 5-(3-isopropyl-5-(1-(4-isopropylcyclohexyl)piperidin-4-yl)-1H-indol-2-yl)-1,3-dimethylpyridin-2(1H)-one] are 52.3 nM and 40.2 nM. Consider `CC(C)c1c(-c2cc(-c3ccccc3)c(=O)n(C)c2)[nH]c2ccc(C3CCNCC3)cc12` [Example 53, 5-(3-isopropyl-5-(piperidin-4-yl)-1H-indol-2-yl)-1-methyl-3-phenylpyridin-2(1H)-one], for which the IC50 on human TLR8 was 10.3 nM; at human TLR7, 11.4 nM. At human TLR7, `Cc1cc(-c2[nH]c3ccc(C4CCN(C(=O)[C@@H]5C[C@@H](O)CN5)CC4)cc3c2C(C)C)cn(C)c1=O` [Example 290, 5-(5-(1-((2S,4R)-4-hydroxypyrrolidine-2-carbonyl)piperidin-4-yl)-3-isopropyl-1H-indol-2-yl)-1,3-dimethylpyridin-2(1H)-one] registered an IC50 of 8.3 nM. As to `Cc1cc(-c2[nH]c3ccc(C4CCN(C(=O)C5(N)CC5)CC4)cc3c2C(C)C)cn(C)c1=O` [Example 272, 5-(5-(1-(1-aminocyclopropanecarbonyl)piperidin-4-yl)-3-isopropyl-1H-indol-2-yl)-1,3-dimethylpyridin-2(1H)-one], the values for the IC50 against human TLR8 and on human TLR7 were 53 nM and 7.9 nM, respectively. Consider `Cc1cc(-c2[nH]c3ccc(C4CCN(C5CCC(C(C)C)CC5)CC4)cc3c2C(C)C)cn(C)c1=O` (stereo not shown) [Example 233, 5-(3-isopropyl-5-(1-(4-isopropylcyclohexyl)piperidin-4-yl)-1H-indol-2-yl)-1,3-dimethylpyridin-2(1H)-one], for which the values for the IC50 against human TLR8 and against human TLR7 were 97 nM and 57.7 nM, respectively. In the case of `CCCN1CCC(c2ccc3[nH]c(-c4cc(-c5cncnc5)c(=O)n(C)c4)c(C(C)C)c3c2)CC1` [Example 249, 5-(3-isopropyl-5-(1-propylpiperidin-4-yl)-1H-indol-2-yl)-1-methyl-3-(pyrimidin-5-yl)pyridin-2(1H)-one], the IC50 was 1.1 nM at human TLR8 and 14.1 nM against human TLR7.
